{"source": "paper PMC3996367", "about": "“Profiling of drugs and environmental chemicals for functional impairment of neural crest migration in a novel stem cell-based test battery” (Archives of Toxicology, 2014)", "key": {"[1]": {"test_system": "Xenopus laevis embryos", "parameters": "method as in Di Renzo et al. (2011)", "settings": "treated during early neurulation; craniofacial defects, bent forebrain, abnormal hindbrain segmentation; ref Di Renzo et al. (2011); cited from earlier work"}, "[2]": {"test_system": "hESC-derived neural crest cells (NCC)", "settings": "human"}, "[3]": {"test_system": "mESC-derived neural stem cells (mESCn)", "settings": "mouse"}, "[4]": {"parameters": "method as in US EPA [2006]", "settings": "ref US EPA [2006]; cited from earlier work"}, "[5]": {"test_system": "HEK293 cells", "settings": "human"}, "[6]": {"parameters": "method as in US EPA [2006]", "settings": "ref US EPA [2006]; cited from earlier work", "remark": "listed apart in the source"}, "[7]": {"test_system": "rats", "settings": "cited from earlier work"}, "[8]": {"test_system": "migration of hESC-derived neural crest cells (NCC)", "test": "MINC assay (migration inhibition of neural crest cells, UKN2)", "settings": "48 h, in a non-cytotoxic concentration range"}}, "data": [{"smiles": "CC(C)(C)C(=O)C(Oc1ccc(Cl)cc1)n1cncn1", "note": "(stereo not drawn) [Triadimefon]", "values": [{"measurement": "Concentration inducing abnormalities", "setting": "[1]", "result": 500, "unit": "µM"}, {"measurement": "Concentration for hit finding in NCC (highest non-cytotoxic concentration in the UKN2 test system)", "setting": "[2]", "result": 50, "unit": "µM"}, {"measurement": "Highest non-cytotoxic conc. in mESCn", "setting": "[3]", "result": "> 50.0", "unit": "µM"}, {"measurement": "Blood:plasma concentration ratio", "setting": "[4]", "result": 0.84}, {"measurement": "Free (unbound) fraction", "setting": "[4]", "result": 0.11}, {"measurement": "Highest non-cytotoxic conc. in HEK293", "setting": "[5]", "result": 50.0, "unit": "µM"}, {"measurement": "Octanol:water partition (Kow)", "setting": "[6]", "result": 912}, {"measurement": "Dose increasing testosterone levels and related effects in male offspring", "setting": "[7]; Wistar rats, perinatal exposure, ref Goetz et al. (2007)", "result": 47, "unit": "mg/kg/day"}, {"measurement": "Dose causing the same neurotoxic symptoms", "setting": "[7]; chronic dietary exposure, male Wistar rats, ref US EPA (2006)", "result": 54.6, "unit": "mg/kg/day"}, {"measurement": "Doses at which a range of toxic effects is observed", "setting": "[7]; effects on male fertility and CNS toxicity, ref Crowell et al. 2011", "result": "around 50 mg/kg/day"}, {"measurement": "Dose causing transient CNS toxicity (hyperactivity, stereotyped behavior)", "setting": "[7]; single dose, oral gavage, adult male Long-Evans rats, ref Crofton et al. (2011)", "result": 50, "unit": "mg/kg"}, {"measurement": "Effect on NCC migration in concentration-response study", "setting": "[8]", "result": "concentration-dependent effect"}]}]}
